Reference: paper PMC5969224, “Lysine‐241 Has a Role in Coupling 2OG Turnover with Substrate Oxidation During KDM4‐Catalysed Histone Demethylation” (Chembiochem, 2018)
Residue numbers refer to the chain shown, from its start. “Also recorded” adds a separate entry of the source. One block for each compound: values may come before it. Square brackets hold non-standard residues; d marks the D form. Ends that are not written are not given here. Lys(Me3) = C[N+](C)(C)CCCC[C@H](N)C(=O)O

Key:
K241A KDM4A [1] = biological target: T1, K241A KDM4A (Homo sapiens, UniProt O75164, K241A); assay: 1H NMR substrate-uncoupled turnover of 2OG to succinate, K241A KDM4A; assay type: biochemical
T1 construct: two recombinant variants of KDM4A (residues 1–359) in Escherichia coli BL21(DE3) cells; His6 (N); made in house; host or cells: Escherichia coli BL21(DE3)
T1 sequence (O75164 1-359 K241A): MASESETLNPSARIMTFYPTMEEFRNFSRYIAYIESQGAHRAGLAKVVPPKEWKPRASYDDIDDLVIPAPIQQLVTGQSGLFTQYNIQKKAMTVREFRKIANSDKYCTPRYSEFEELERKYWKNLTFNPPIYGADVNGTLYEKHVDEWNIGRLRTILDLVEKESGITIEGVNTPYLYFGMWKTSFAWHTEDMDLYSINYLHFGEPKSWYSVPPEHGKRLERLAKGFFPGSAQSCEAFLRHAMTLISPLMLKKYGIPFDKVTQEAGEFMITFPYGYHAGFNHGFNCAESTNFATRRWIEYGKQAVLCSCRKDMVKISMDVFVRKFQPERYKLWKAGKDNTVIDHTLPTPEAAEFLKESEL
Description: (§1) Samples containing either WT or K241A (20.5 μM), an excess of 2OG (2 mM), ascorbate (1 mM), and ferrous iron (100 μM) in ammonium formate buffer (50 mM, pH 7.5) were subjected to ^1H NMR analysis at 1.5 min intervals over a 30‐min reaction. […] Experiments were then conducted in the presence of a histone H3 eight‐residue fragment peptide containing N ^ϵ‐trimethyllysine at position 9 (H3K9me3, sequence: ARKme3STGGK).
(§2) 1H NMR activity and inhibition assays: 20.5 µM KDM4A WT or KDM4A K241A was
(§3) mixed with 2 mM 2OG, 1 mM sodium L-ascorbate, and 100 µM ferrous iron (source
(§4) (NH4)2FeSO4.6H2O), in 50 mM ammonium formate buffer pH 7.5 10 % v/v D2O in an Ep-
(§5) pendorf tube, before being immediately transferred to an NMR tube and subjected to 1H NMR
(§6) analysis (700 MHz). For samples containing peptide substrate (sequence: ARKme3STGGK),
(§7) the peptide concentration was 300 µM. For inhibition assays, samples contained 100 µM in-
(§8) hibitor (JIB-04 or NOG) and the spectra were acquired after 35 min. Note: residual protein
(§9) buffer was also present. NMR analyses were carried out on a Bruker AVIII 700 spectrometer
(§10) equipped with an inverse TCI 1H/13C/15N cryoprobe and running TOPSPIN 3.2 software. The
(§11) deuterium signal was used as an internal lock signal and 1H chemical shifts are reported in
(§12) ppm relative to the solvent HDO resonance (δH 4.7 ppm).

WT KDM4A [2] = biological target: T2, WT KDM4A (Homo sapiens, UniProt O75164); assay: 1H NMR substrate-uncoupled turnover of 2OG to succinate, WT KDM4A; assay type: biochemical; design: two recombinant variants of KDM4A (residues 1–359) in Escherichia coli BL21(DE3) cells; His6 (N); made in house; host or cells: Escherichia coli BL21(DE3); conditions: WT 20.5 μM, 2OG 2 mM, ascorbate 1 mM, Fe(II) 100 μM, 50 mM ammonium formate pH 7.5, no peptide; 1H NMR 700 MHz, 1.5 min intervals over 30 min
T2 sequence (O75164 1-359): T1 sequence (O75164 1-359 K241A) with A241K
Description: Samples containing either WT or K241A (20.5 μM), an excess of 2OG (2 mM), ascorbate (1 mM), and ferrous iron (100 μM) in ammonium formate buffer (50 mM, pH 7.5) were subjected to ^1H NMR analysis at 1.5 min intervals over a 30‐min reaction.
as §2, §3, §4, §5, §9, §10, §11
ppm relative to the solvent HDO resonance (δH 4.7 ppm). The solvent signal was reduced by

WT KDM4A [3] = biological target: T2, WT KDM4A; conditions: ref 12b; cited from earlier work
Description: Studies were then carried out to evaluate the ability of the two KDM4A proteins to catalyse the demethylation of a histone peptide substrate.

WT KDM4A [4] = biological target: T2, WT KDM4A; assay: 1H CPMG NMR binding assay, WT KDM4A; design: two recombinant variants of KDM4A (residues 1–359) in Escherichia coli BL21(DE3) cells; His6 (N); made in house; host or cells: Escherichia coli BL21(DE3); conditions: protein titrated into 40 µM JIB-04, 100 µM Fe(II), 50 mM ammonium formate pH 7.5, 10 % D2O, 600 MHz CPMG, quadratic fit, read-out: K D (JIB-04), provisional
Description: as §1
(§13) NMR analyses were carried out on a Bruker AVIII 700 spectrometer
as §10, §11, §12
(§14) 1H CPMG NMR binding assays: Typical experimental parameters for Carr-Purcell-Mei-
(§15) boom-Gill (CPMG) NMR spectroscopy were as follows: total echo time, 40 ms; relaxation
(§16) delay, 2 s; and number of transients, 264. The PROJECT-CPMG sequence was applied
(§17) (90°x−[τ−180°y−τ−90°y−τ−180°y−τ]n−acq).[4] Water suppression was achieved by presatura-
(§18) tion. Protein (KDM4A WT or KDM4A K241A) was titrated into an assay mixture of 40 µM

K241A KDM4A [5] = biological target: T1, K241A KDM4A; assay: 1H CPMG NMR binding assay, K241A KDM4A; conditions: for binding to K241A versus WT KDM4A: CPMG NMR, K241A compared with WT
Description: as §1, §13, §10, §11, §12, §14, §15, §16, §17, §18

WT KDM4A [6] = biological target: T2, WT KDM4A; assay: 1H NMR inhibition assay of uncoupled 2OG turnover, WT KDM4A; assay type: biochemical; design: two recombinant variants of KDM4A (residues 1–359) in Escherichia coli BL21(DE3) cells; His6 (N); made in house; host or cells: Escherichia coli BL21(DE3); conditions: WT KDM4A 20.5 μM; inhibitor 100 μM; 2OG 2 mM; spectra after 35 min; pH 7.5
Description: as §1, §2, §3, §4, §5, §6, §7, §8, §9, §10, §11, §12

K241A KDM4A [7] = biological target: T1, K241A KDM4A; assay: 1H NMR inhibition assay of uncoupled 2OG turnover, K241A KDM4A; assay type: biochemical; conditions: K241A KDM4A 20.5 μM; inhibitor 100 μM; 2OG 2 mM; spectra after 35 min; pH 7.5
Description: as §1, §2, §3, §4, §5, §6, §7, §8, §9, §10, §11, §12

K241A KDM4A [8] = biological target: T1, K241A KDM4A; conditions: mixed-mode inhibition of K241A; cited from earlier work
Text: The overall MS, NMR spectroscopy and fluorescence polarisation studies imply that K241 has a role in KDM4A catalysis. […] Succinate formation by the K241A variant is stimulated by a histone fragment peptide, and a fluorescently labelled histone peptide bind ...

WT KDM4A [9] = biological target: T2, WT KDM4A; assay: 1H NMR succinate formation in presence of H3 eight-residue peptide, WT KDM4A; assay type: biochemical; design: two recombinant variants of KDM4A (residues 1–359) in Escherichia coli BL21(DE3) cells; His6 (N); made in house; host or cells: Escherichia coli BL21(DE3); conditions: peptide 300 µM
Description: as §1, §2, §3, §4, §5, §6, §7, §8, §9, §10, §11, §12

K241A KDM4A [10] = biological target: T1, K241A KDM4A; assay: 1H NMR succinate formation in presence of H3 eight-residue peptide, K241A KDM4A; assay type: biochemical; conditions: K241A KDM4A 20.5 μM; peptide 300 µM; 2OG 2 mM; pH 7.5
Description: as §1, §2, §3, §4, §5, §6, §7, §8, §9, §10, §11, §12

K241A KDM4A [11] = biological target: T1, K241A KDM4A; assay: MALDI-TOF MS demethylation assay, K241A KDM4A; assay type: biochemical; conditions: K241A KDM4A 1 μM, peptide 100 μM, 2OG 100 μM, ascorbate 100 μM, Fe(II) 10 μM, 50 mM HEPES pH 7.5, 40 min, 37 °C
Description: Initially, we produced two recombinant variants of KDM4A (residues 1–359) in Escherichia coli BL21(DE3) cells; a truncated wild‐type sequence (KDM4A WT), or a variant with an alanine in place of Lys241 (K241A KDM4A). Studies were then carried out to evaluate the ability of the two KDM4A proteins to catalyse the demethylation of a histone peptide substrate.
MALDI-TOF MS activity assays: 1 µM WT KDM4A or KDM4A K241A was incubated
with 100 µM disodium 2-oxoglutarate (2OG), 100 µM sodium L-ascorbate, 10 µM ferrous iron
(source (NH4)2FeSO4.6H2O) and 100 µM of 15-residue H3 fragment peptide containing the
requisite trimethyllysine mark (Table S1) in 50 mM HEPES buffer pH 7.5 for 40 min at 37 °C.
Assays were quenched with an equal vol-
ume of methanol, and the extent of the reaction determined using MALDI-TOF mass spec-
trometry (MS). Data were analysed using MASSLYNX 4.0 (Waters).

inhibition of uncoupled 2OG turnover (WT KDM4A [6]): inhibited
inhibition of uncoupled 2OG turnover (K241A KDM4A [7]): inhibited
Compound: O=C(O)CNC(=O)C(=O)O [N‐oxalylglycine]

effect of peptide on succinate formation rate (WT KDM4A [9]; WT KDM4A 20.5 μM, 2OG 2 mM, pH 7.5): markedly increased
effect of peptide on succinate formation rate (K241A KDM4A [10]): markedly increased
Compound: AR[Lys(Me3)]STGGK [histone H3 eight‐residue fragment peptide containing N ϵ‐trimethyllysine at position 9 (also called H3K9me3)]
stimulation of succinate formation, WT versus K241A (WT KDM4A [9]; WT compared with K241A): Stimulation of succinate formation was greater for WT than for K241A KDM4A; also recorded: Succinate formation is stimulated by H3K9me3 peptide, but more readily with WT KDM4A

Continued, compound first:

Compound: O=C(O)CCC(=O)C(=O)O [2OG, 2‐oxoglutarate]
initial succinate formation rate (K241A KDM4A [1]; K241A 20.5 μM, 2OG 2 mM, ascorbate 1 mM, Fe(II) 100 μM, 50 mM ammonium formate pH 7.5, no peptide, 1H NMR 700 MHz, 1.5 min intervals over 30 min): 1.55 µM/min
succinate formation rates, WT versus K241A (K241A KDM4A [1]; in the absence of peptide, WT and K241A KDM4A compared): near identical
initial succinate formation rate (WT KDM4A [2]): 1.35 µM/min
K M (2OG) (WT KDM4A [3]): 26 ± 7 µM

Compound: Clc1ccc(N/N=C(\c2ccccc2)c2ccccn2)nc1 [JIB‐04]
Kd (WT KDM4A [4]): 22 ± 5 µM
binding to K241A versus WT KDM4A (K241A KDM4A [5]): preferential binding of JIB‐04 to the K241A variant over the WT enzyme; also recorded: binding to K241A appears stronger
binding to K241A versus WT KDM4A (K241A KDM4A [5]; listed as JIB-04): Binding appears stronger to the K241 variant than KDM4A WT
Kd (K241A KDM4A [5]; K241A KDM4A, protein titrated into 40 µM JIB-04, 100 µM Fe(II), 50 mM ammonium formate pH 7.5, 10 % D2O, 600 MHz CPMG, quadratic fit, read-out: K D (JIB-04), provisional): 7 ± 2 µM
inhibition of uncoupled 2OG turnover (WT KDM4A [6]): inhibition was more pronounced
inhibition of uncoupled 2OG turnover (K241A KDM4A [7]): inhibition was more pronounced
mode of inhibition (K241A KDM4A [8]): mixed‐mode inhibition

Compound: TPVKKKAR[Lys(Me3)]SAGAAK [H1.4K26 peptide]
demethylation of histone peptide (K241A KDM4A [11]): low‐level demethylation
